Data as given in patent US9931347B2, “Pharmaceutical compound” (IOmet Pharma Ltd., priority 2013, dated 2018).

What was measured:
[1] = target: T1, TDO (A172 human glioblastoma cells) (Homo sapiens, UniProt P48775); test: A172 Kynurenine cell based assay; details: 500 μM L-tryptophan, 48 hours, kynurenine by Erhlich's reagent
T1 construct: This assay utilised cancer cells which expressed either TDO or IDO; endogenous in cells; host or cells: A172 human glioblastoma cells
Protocol: (§1) Exemplary compounds of the invention were prepared, and tested to determine their effect as TDO and/or IDO inhibitors. Two different assays were employed: 1. a cell-based assay for detecting the effect of test compounds on kynurenine production in two different cancer cell types. This assay utilised cancer cells which expressed either TDO or IDO and as such was used as a means of testing compound activity at these two enzymes in a cell-based context. 2. a TDO and IDO biochemical coupled assay which utilised recombinantly produced and purified TDO and IDO enzymes in combination with the enzyme formamidase. This coupled enzyme system allowed conversion of N-formylkynurenine produced by TDO or IDO activity to kynurenine which was then quantified by fluorescence following addition of Erhlich's Reagent The protocols for these are set out below.
A172 (human glioblastoma) and SKOV3 (human ovarian adenocarcinoma) cells were seeded in a 96 well plate at 30,000 or 40,000 cells per well respectively in phenol red-free RPMI supplemented with 10% FCS, 2 mM L-glutamine and 500 μM L-tryptophan. IDO expression was induced in the SKOV3 cells by the addition of 500 ng/ml IFN-γ. Cells were incubated at 37° C. with or without the addition of test compound. After 48 hours, the cells were removed by centrifugation and Erhlich's reagent was added to the supernatant. The Erhlich's reagent was incubated for 5 minutes before the absorbance was read at 490 nm.

[2] = target: T2, IDO (SKOV3 human ovarian adenocarcinoma cells, IFN-γ induced) (Homo sapiens, UniProt P14902); test: SKOV3 Kynurenine cell based assay; details: IDO induced by 500 ng/ml IFN-γ, 500 μM L-tryptophan, 48 hours
T2 construct: IDO expression was induced in the SKOV3 cells by the addition of 500 ng/ml IFN-γ; endogenous in cells; host or cells: SKOV3 human ovarian adenocarcinoma cells, induced with IFN-γ
Protocol: as §1
A172 (human glioblastoma) and SKOV3 (human ovarian adenocarcinoma) cells were seeded in a 96 well plate at 30,000 or 40,000 cells per well respectively in phenol red-free RPMI supplemented with 10% FCS, 2 mM L-glutamine and 500 μM L-tryptophan. IDO expression was induced in the SKOV3 cells by the addition of 500 ng/ml IFN-γ. Cells were incubated at 37° C. with or without the addition of test compound. After 48 hours, the cells were removed by centrifugation and Erhlich's reagent was added to the supernatant.

[3] = target: Recombinant human IDO (Homo sapiens, UniProt P14902); test: hIDO biochemical coupled assay; details: 45 μM L-tryptophan, coupled with kynurenine formamidase
Protocol: as §1
Recombinant human IDO or TDO was incubated in 50 mM KPO4 (pH 7.0), 0.5 mM EGTA, 0.5 mM EDTA, 0.05% Triton™ X100, 20 mM ascorbate, 10 μM methylene blue, 500 U/ml catalase, 50 μg/ml KynB (kynurenine formamidase).

Chain of Recombinant human IDO (P14902 whole entry): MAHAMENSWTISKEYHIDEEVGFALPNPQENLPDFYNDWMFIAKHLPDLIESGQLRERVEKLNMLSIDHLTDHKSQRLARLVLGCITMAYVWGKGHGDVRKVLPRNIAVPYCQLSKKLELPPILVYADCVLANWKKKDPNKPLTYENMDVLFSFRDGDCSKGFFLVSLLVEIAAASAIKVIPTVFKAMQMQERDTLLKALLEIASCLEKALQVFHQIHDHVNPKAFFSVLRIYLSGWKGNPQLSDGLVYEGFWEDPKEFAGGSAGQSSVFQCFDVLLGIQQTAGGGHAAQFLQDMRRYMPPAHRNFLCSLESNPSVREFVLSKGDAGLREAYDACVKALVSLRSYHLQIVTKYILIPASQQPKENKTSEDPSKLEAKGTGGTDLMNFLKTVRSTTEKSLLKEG
T2 sequence (P14902 whole entry): as above
T1 sequence (P48775 whole entry): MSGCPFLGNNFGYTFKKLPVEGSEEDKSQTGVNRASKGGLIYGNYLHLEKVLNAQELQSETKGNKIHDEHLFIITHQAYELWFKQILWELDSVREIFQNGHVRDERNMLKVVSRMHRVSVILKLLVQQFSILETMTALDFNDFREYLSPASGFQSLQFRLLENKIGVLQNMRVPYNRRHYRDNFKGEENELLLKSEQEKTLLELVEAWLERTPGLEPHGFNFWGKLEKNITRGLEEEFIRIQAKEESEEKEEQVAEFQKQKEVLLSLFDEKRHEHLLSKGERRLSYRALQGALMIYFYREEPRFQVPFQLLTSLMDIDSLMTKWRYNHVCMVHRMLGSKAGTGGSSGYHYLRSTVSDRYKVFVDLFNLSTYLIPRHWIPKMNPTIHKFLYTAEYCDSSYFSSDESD

A172 Kynurenine cell based assay pIC50 [1] | SKOV3 Kynurenine cell based assay pIC50 [2] | hIDO biocehmical assay pIC50 [3] | SMILES
+ (+ = pIC50 4.00-4.99) | ++ (++ = pIC50 5.00-5.99) | + (+ = pIC50 4.00-4.99) | Cn1cccc1C(=O)N1CCC(c2c[nH]c3cc(F)ccc23)CC1 [Compound 278]
++ (++ = pIC50 5.00-5.99) | + (+ = pIC50 4.00-4.99) |  | CS(=O)(=O)N1CC=C(c2c[nH]c3cc(F)c(Cl)cc23)CC1 [Compound 248]
++ (++ = pIC50 5.00-5.99) | + (+ = pIC50 4.00-4.99) |  | CC(=O)N1CCC(c2c[nH]c3cc(Cl)ccc23)CC1 [Compound 245]
++ (++ = pIC50 5.00-5.99) | + (+ = pIC50 4.00-4.99) |  | CC(=O)N1CCC(c2c[nH]c3cc(F)ccc23)CC1(C)C (stereo not drawn) [Compound 316]
+ (+ = pIC50 4.00-4.99) | + (+ = pIC50 4.00-4.99) |  | CC(=O)N1CC=C(c2c[nH]c3ccc(C(F)(F)F)cc23)CC1 [Compound 229]
++ (++ = pIC50 5.00-5.99) | + (+ = pIC50 4.00-4.99) |  | O=S(=O)(C1CCCC1)N1CCC(c2c[nH]c3cc(F)ccc23)CC1 [Compound 291]
++ (++ = pIC50 5.00-5.99) | ++ (++ = pIC50 5.00-5.99) |  | CS(=O)(=O)N1CCC(c2c[nH]c3ccc(Cl)cc23)CC1 [Compound 239]
+ (+ = pIC50 4.00-4.99) | + (+ = pIC50 4.00-4.99) |  | CC(=O)N1CCC(c2c[nH]c3ccc(C#N)cc23)CC1 [Compound 233]
+ (+ = pIC50 4.00-4.99) | ++ (++ = pIC50 5.00-5.99) |  | CS(=O)(=O)N1CCC(c2c[nH]c3ccc(C(F)(F)F)cc23)CC1 [Compound 240]
++ (++ = pIC50 5.00-5.99) | + (+ = pIC50 4.00-4.99) |  | CC(=O)N1CC=C(c2c[nH]c3cc(OCCN(C)C)ccc23)CC1 [Compound 255]
+ (+ = pIC50 4.00-4.99) | + (+ = pIC50 4.00-4.99) |  | CS(=O)(=O)N1CCC(c2c[nH]c3cc(Cl)c(F)cc23)CC1 [Compound 243]
+ (+ = pIC50 4.00-4.99) | + (+ = pIC50 4.00-4.99) |  | CCCc1cc(C(=O)N2CCC(c3c[nH]c4cc(F)ccc34)CC2)[nH]n1 [Compound 277]

Further lines, the compound ahead of its results:

SMILES | A172 Kynurenine cell based assay pIC50 [1] | SKOV3 Kynurenine cell based assay pIC50 [2] | hIDO biocehmical assay pIC50 [3]
CC(=O)N1CC=C(c2c[nH]c3cccnc23)CC1 [Compound 157] | + (+ = pIC50 4.00-4.99) | + (+ = pIC50 4.00-4.99) | +− (+− = pIC50 <4.00)
Cc1cccc2c(C3CCN(S(=O)(=O)c4ccccc4S(C)(=O)=O)CC3)c[nH]c12 [Compound 49] | ++ (++ = pIC50 5.00-5.99) | + (+ = pIC50 4.00-4.99) | +− (+− = pIC50 <4.00)
CN1CCN(c2c[nH]c3ccccc23)CC1=O [Compound 189] | + (+ = pIC50 4.00-4.99) | +− (+− = pIC50 <4.00) | +− (+− = pIC50 <4.00)
COc1ccc(Cl)cc1S(=O)(=O)N1CCC(c2c[nH]c3c(C)cccc23)CC1 [Compound 45] | + (+ = pIC50 4.00-4.99) | + (+ = pIC50 4.00-4.99) | +− (+− = pIC50 <4.00)
Cc1[nH]c2ccccc2c1C1=CCN(S(C)(=O)=O)CC1 [Compound 160] | +− (+− = pIC50 <4.00) | + (+ = pIC50 4.00-4.99) | +− (+− = pIC50 <4.00)
CS(=O)(=O)N1CCN(c2c[nH]c3ccccc23)CC1 [Compound 108] | + (+ = pIC50 4.00-4.99) | +− (+− = pIC50 <4.00) | +− (+− = pIC50 <4.00)
COc1ccc2[nH]cc(C3CCN(S(=O)(=O)c4ccc(C(F)(F)F)cc4Cl)CC3)c2c1 [Compound 43] | + (+ = pIC50 4.00-4.99) | + (+ = pIC50 4.00-4.99) | +− (+− = pIC50 <4.00)
Cc1noc(N2CCC(c3c[nH]c4cc(F)ccc34)CC2)n1 [Compound 183] | ++ (++ = pIC50 5.00-5.99) | + (+ = pIC50 4.00-4.99) | +− (+− = pIC50 <4.00)
Cc1cccc2c(C3CCN(S(=O)(=O)c4cccc(C(F)(F)F)c4)CC3)c[nH]c12 [Compound 46] | + (+ = pIC50 4.00-4.99) | +− (+− = pIC50 <4.00) | +− (+− = pIC50 <4.00)
CC(=O)N1CCC(c2c[nH]c3ccc(F)cc23)CC1 [Compound 158] | + (+ = pIC50 4.00-4.99) | +− (+− = pIC50 <4.00) | +− (+− = pIC50 <4.00)
Cc1cccc2c(C3CCN(S(=O)(=O)c4ccc(C(C)(C)C)cc4)CC3)c[nH]c12 [Compound 40] | + (+ = pIC50 4.00-4.99) | +− (+− = pIC50 <4.00) | +− (+− = pIC50 <4.00)
COc1cccc2[nH]cc(C3=CCN(C(C)=O)CC3)c12 [Compound 169] | + (+ = pIC50 4.00-4.99) | + (+ = pIC50 4.00-4.99) | +− (+− = pIC50 <4.00)
CCCc1ccc(S(=O)(=O)N2CCC(c3c[nH]c4c(C)cccc34)CC2)cc1 [Compound 48] | + (+ = pIC50 4.00-4.99) | + (+ = pIC50 4.00-4.99) | +− (+− = pIC50 <4.00)
Cc1cccc2c(C3CCN(C(=O)c4cnn(-c5ccccc5)c4C(F)(F)F)CC3)c[nH]c12 [Compound 41] | + (+ = pIC50 4.00-4.99) | + (+ = pIC50 4.00-4.99) | +− (+− = pIC50 <4.00)
CS(=O)(=O)N1CC=C(c2c[nH]c3ccncc23)CC1 [Compound 170] | ++ (++ = pIC50 5.00-5.99) | + (+ = pIC50 4.00-4.99) | +− (+− = pIC50 <4.00)
COc1ccc2[nH]cc(C3CCN(S(=O)(=O)c4cccc(OC(F)(F)F)c4)CC3)c2c1 [Compound 53] | + (+ = pIC50 4.00-4.99) | + (+ = pIC50 4.00-4.99) | +− (+− = pIC50 <4.00)
CC1CN(c2c[nH]c3ccccc23)CCN1S(C)(=O)=O (stereo not drawn) [Compound 186] | ++ (++ = pIC50 5.00-5.99) | +− (+− = pIC50 <4.00) | +− (+− = pIC50 <4.00)
CC(=O)N1CC=C(c2c[nH]c3c(Cl)cccc23)CC1 [Compound 196] | + (+ = pIC50 4.00-4.99) | + (+ = pIC50 4.00-4.99) | 
